Experimental data taken from patent publication US4517180A, “Peptides, process for preparing the same and psychodepressant compositions containing the same” (Amano Pharmaceutical Co., Ltd, priority 1982, dated 1985).
Entries after “also recorded” stand apart in the source; their conditions may differ.

Key:
[1] = test system: Male ddy mice; assay: Effect on climbing behavior induced by apomorphine (Pharmacological Test 2); format: in vivo; design: key to Average: Mean ± S.E. (total of 7 scores), climbing behavior: sum of 7 scores; 0 = all four legs on floor, 2 = ≥3 legs on rods; settings: for Average: Mean ± S.E. (total of 7 scores), climbing behavior: 30 min before apomorphine 0.75 mg/kg s.c., control 9.8 ± 0.7
Experimental: (§1) Effect on climbing behavior induced by apomorphine
Male ddy mice (weighing 20 to 30 g) were used, with 10 mice in each group. Each mouse was placed into a cylindrical cage, 12 cm in diameter and 14 cm in height, made up of vertical rods of 2 mm in diameter spaced apart at a distance of 10 mm in a circular arrangement. The mouse was allowed to stand therein for 2 hours. Peptide A, peptide B, CCK-8 or, as a control, the above-mentioned diluent was subcutaneously given to the animal, and 30 minutes later, 0.75 mg/kg of apomorphine was subcutaneously given. […] The test was carried out in soundproof compartments.
(§2) 0: All the four legs are on the floor.
(§3) 2: At least three legs are on rods.
Student's t-test was resorted to for statistical treatment.

[2] = test system: male Wister rats; assay: Effect on metabolism of amine in the brain; format: in vivo
Experimental: Effect on metabolism of amine in the brain
Unfasted male Wister rats (weighing 180 to 220 g) were used. Peptide A or peptide B was subcutaneously given to the animal at a dose of 1 mg/kg, the head was irradiated with microwave 1 hour thereafter, and amine metabolite was extracted from the brain. First, removed tissues were homogenized with 1M formic acid and centrifuged at 20,000×g for 20 minutes, and the supernatant (1 ml) was shaken with 5 ml of ethyl acetate. The 3,4-dihydroxyphenylacetic acid (DOPAC), homovanillic acid (HVA) and 5-hydroxyindoleacetic acid (5-HIAA) in the ethyl acetate layer were analyzed by high-performance liquid chromatography under the following conditions. Chemcosorb, 5-ODS, 20 cm×4.6 mm I.D. was used for a separating column, and a mobile phase (0.1M KH2 PO4 (pH 5.0)-5 mM EDTA-2Na-5% acetonitrile) was passed through the colunn at a flow rate of 1 ml/min. The electrochemical detector was set to an oxidation potential of +0.8 V.

[3] = test system: test animals; assay: Induction of catalepsy in test animals; format: in vivo
[4] = test system: male Wister rats; assay: Effect on the fixed ratio (FR20) responding in rats; format: in vivo; settings: s.c., 15 min before 20 min session, dose giving count 50 with control as 100
Experimental: Effect on the fixed ratio responding in rats
The test was conducted according to the method described in Ahlenius S. and Engel J., Eur. J. Pharm., Vol. 15, 187-192 (1971).
Male Wister rats (weighing 240 to 320 g) were placed into Skinner box (product of Bil-Medika Co., Ltd., Japan, adapted to give a feed when a lever within the box is pressed) and made to learn how to take the food. In this test, one feed was given to the rats when the lever was pressed 20 times, i.e., fixed ratio (FR) 20. The rats showing stable FR20 response were divided into groups each including four rats.
Physiological saline (containing 1 mM of sodium hydrogencarbonate) containing a specified amount of a test compound was subcutaneously given to the rats of one group in a volume of 0.1 ml/100 g. (Physiological saline containing the above-mentioned amount of sodium hydrogencarbonate only was given to the control group). Fifteen minutes after the administration, the test animals were placed in the Skinner box, and the number of times the animals took the feed for 20 minutes was counted. The dose at which the count gained by the group of animals was 50, namely, ED50 value, was determined, with the count gained by the control group calculated as 100. The same procedure as above was repeated with use of the other test compounds.

[5] = test system: male Wister rats; assay: Effect on yawning behavior induced by apomorphine; format: in vivo
Experimental: Effect on yawning behavior
Male Wister rats (weighing 200 to 300 g) were used, with 10 rats in each group. The rat was placed into a plastics cage (17×24×12 cm) with a floor mat and was then habituated for 30 minutes. Peptide A, peptide B, CCK-8 or the above-mentioned diluent serving as a control was subcutaneously given to the animal. Thirty minutes thereafter, 0.03 mg/kg of apomorphine was subcutaneously given to the animal. The number of yawns induced by apomorphine was counted during a period of 30 minutes following administration of apomorphine. The test was conducted in a soundproof compartment for each animal. Wilcoxon rank-sum test was resorted to for statistical treatment.

[6] = Induction of yawning behavior; settings: in vivo
[7] = test system: Male ddy mice; assay: Effect on climbing behavior induced by apomorphine (Pharmacological Test 7); format: in vivo; design: key: sum of 7 scores; each 0 = four legs on floor, 2 = ≥3 legs on rods; settings: control 9.8 ± 0.7
Experimental: as §1
Male ddy mice (weighing 20 to 30 g) were used, with 10 mice in each group. Each mouse was placed into a cylindrical cage, 12 cm in diameter and 14 cm in height, made up of vertical rods of 2 mm in diameter spaced apart at a distance of 10 mm in a circular arrangement. The mouse was allowed to stand therein for 2 hours. Physiological saline containing a specified amount of a test compound (and 1 mM of sodium hydrogencarbonate) was subcutaneously given to one group of mice in a volume of 1 ml/10 g. (The same dose of saline only was given to a control group). […] The test was carried out in soundproof compartments.
as §2, §3
The other compounds were tested in the same manner as above. The test was carried out in soundproof compartments. Student's t-test was resorted to for statistical treatment.

[8] = test system: Male ICR mice; assay: Inhibitory effect on hyperlocomotion induced by administration of methylphenidate; format: in vivo; settings: s.c. with methylphenidate 10 mg/kg s.c., measured 1 hour after, 50 with control as 100
Experimental: Inhibitory effect on hyperlocomotion induced by administration of methylphenidate
Male ICR mice (weighing 24 to 30 g) were divided into groups, each including 10 mice. To one group of mice were subcutaneously given 10 mg/kg of methylphenidate and 0.1 ml/10 g of a saline solution of a specified amount of a test compound and 1 mM of sodium hydrogencarbonate. One hour after the administration, the test animals were checked for hyperlocomotion, which was measured with use of a device for measuring locomotion of small animals (wherein the motion of an animal shifts the center of graavity of the device to actuate a microswitch for the measurement of the amount of motion, see Folia Pharmacologica Japonica, 74, 629-639 (1978). For a control group, the same procedure as above was repeated except that the saline solution given was free from any test compound. The concentration of the test compound at which the result achieved by the group of animals was 50, namely, ED50 value, was determined, with the measurement obtained by the control group calculated as 100. The other compounds were tested in the same manner as above.

In the case of `CSCC[C@H](NC(=O)[C@H](Cc1ccc(OS(=O)(=O)O)cc1)NC(=O)[C@@H](N)CC(=O)O)C(=O)NCC(=O)N[C@@H](Cc1c[nH]c2ccccc12)C(=O)N[C@@H](CCSC)C(=O)N[C@@H](CC(=O)O)C(=O)N[C@@H](Cc1ccccc1)C(N)=O` [CCK-8, Asp--Tyr(SO3 H)--Met--Gly--Trp--Met--Asp--Phe--NH2, reference compound], the “Average: Mean ± S.E. (total of 7 scores), climbing behavior” value (shortened to “Average: Mean ± S.E. (total of 7 scores)”) ([1]; 0.01 mg/kg s.c.) was 10.2 ± 0.7, the “Average: Mean ± S.E. (total of 7 scores)” value ([1]; 0.1 mg/kg s.c.) was 11.4 ± 0.6 and the “Average: Mean ± S.E. (total of 7 scores)” value ([1]; 1 mg/kg s.c.) was 9.5 ± 1.0. The “Effect on apomorphine-induced climbing behavior (in words)” value ([1]; mice, s.c.) was “little or no influence on the climbing behavior; also recorded: does not inhibit this behavior”, the “Acceleration of the metabolism of dopamine in the brain of rats (in words)” value [2] was “does not accelerate the metabolism of dopamine” and the “Induction of catalepsy (side effect)” value [3] was “induces catalepsy”. The “ED50, inhibition of FR20 responding” value [4] was 0.0221 mg/kg, the “Number of yawns (average)” value ([5]; 1 mg/kg s.c., 30 min before apomorphine 0.03 mg/kg s.c., counted 30 min, control 4.5) was 4.9 and the “Effect on yawning behavior induced by apomorphine (in words)” value ([5]; rats, s.c.) was “not inhibited”. The “Induction of yawning behavior (thought to be induced by a reduction in the amount of dopamine)” value [6] was “induces no yawning behavior whatsoever”, the “Average: Mean ± S.E. (total of 7 scores)” value ([7]; 0.01 mg/kg s.c.) was 10.2 ± 0.7 and the “Average: Mean ± S.E. (total of 7 scores)” value ([7]; 0.1 mg/kg s.c.) was 11.4 ± 0.6. For the same molecule, the “Average: Mean ± S.E. (total of 7 scores)” value ([7]; 1.0 mg/kg s.c.) was 9.5 ± 1.0 and the “ED50, inhibition of methylphenidate-induced hyperlocomotion” value [8] was 0.5125 mg/kg.
